Source: patent US20120121540A1 (priority 2007, published 2012)

Experiment: HCV replicon assay (luciferase reporter, ET cell line)
Assay type: cell-based
Conditions: Hepatitis C virus, HCV replicon luciferase activity in ET cells
Method: A cell line, ET (Huh-lucubineo-ET) is used for screening of compounds for inhibiting HCV RNA dependent RNA polymerase. The ET cell line is stably transfected with RNA transcripts harboring a I389 luc-ubi-neo/NS3-3′/ET; replicon with firefly luciferase-ubiquitin-neomycin phosphotransferase fusion protein and EMCV-IRES driven NS3-5B polyprotein containing the cell culture adaptive mutations (E1202G; T1280I; K1846T) (Krieger at al, 2001 and unpublished). The ET cells are grown in DMEM (Dulbeco's Modified Eagle's Medium), supplemented with 10% fetal calf serum, 2 mM Glutamine, Penicillin (100 IU/mL)/Streptomycin (100 μg/mL), 1× nonessential amino acids, and 250 μg/mL G418 (“Geneticin”). They are all available through Life Technologies (Bethesda, Md.). The cells are plated at 0.5−1.0×10^4 cells/well in the 96 well plates and incubated for 24 hrs before adding test compound. The compounds are added to the cells to achieve a final concentration of 0.1 nM to 50 μm and a final DMSO (dimethylsulfoxide) concentration of 0.5%. Luciferase activity is measured 48-72 hours later by adding a lysis buffer and the substrate (Catalog number Glo-lysis buffer E2661 and Bright-Glo luciferase system E2620 Promega, Madison, Wis.). Cells should not be too confluent during the assay. Percent inhibition of replication data is plotted relative to no compound control. Under the same condition, cytotoxicity of the compounds are determined using cell proliferation reagent, WST-1 (Roche, Germany). The compounds showing antiviral activities, but no significant cytotoxicities are chosen to determine EC50 and TC50. For these determinations, a 10 point, 2-fold serial dilution for each compound was used, which spans a concentration range of 1000 fold. EC50 and similarly TC50 values were calculated by fitting % inhibition at each concentration to the following equation:
% inhibition=100%/[(EC50/[I])^b+1]
where b is Hill's coefficient.
% inhibition values at a specific concentration, […] for example, can also be derived from the equation above.

| SMILES | inhibition at 10 µM |
| --- | --- |
| O=C(NCc1cccs1)c1nc2c(C(F)(F)F)cc(-c3cccs3)cn2c1Cl [Compound 175, 3-Chloro-6-thiophen-2-yl-8-trifluoromethyl-imidazo[1,2-a]pyridine-2-carboxylic acid (thiophen-2-ylmethyl)-amide] | 99.4% |
| O=C(NCc1cccs1)c1nc2c(C(F)(F)F)cc(-c3ccc(Cl)s3)cn2c1Cl [Compound 176, 3-Chloro-6-(5-chloro-thiophen-2-yl)-8-trifluoromethyl-imidazo[1,2-a]pyridine-2-carboxylic acid (thiophen-2-ylmethyl)-amide] | 96.8% |
| O=C(NCc1cccs1)c1nc2c(C(F)(F)F)cc(-c3ccccc3)cn2c1Cl [Compound 177, 3-Chloro-6-phenyl-8-trifluoromethyl-imidazo[1,2-a]pyridine-2-carboxylic acid (thiophen-2-ylmethyl)-amide] | 93.2% |
| O=C(NCc1cccs1)c1nc2c(C(F)(F)F)cc(-c3ccc(F)cc3)cn2c1Cl [Compound 178, 3-Chloro-6-(4-fluoro-phenyl)-8-trifluoromethyl-imidazo[1,2-a]pyridine-2-carboxylic acid (thiophen-2-ylmethyl)-amide] | 75.2% |
| O=C(NCc1ccccc1C(F)(F)F)c1nc2c(C(F)(F)F)cc(-c3ccco3)cn2c1Cl [Compound 179, 3-Chloro-6-furan-2-yl-8-trifluoromethyl-imidazo[1,2-a]pyridine-2-carboxylic acid 2-trifluoromethyl-benzylamide] | 37.5% |
| O=C(NCc1cccc(C(F)(F)F)c1)c1nc2c(C(F)(F)F)cc(-c3ccco3)cn2c1Cl [Compound 180, 3-Chloro-6-furan-2-yl-8-trifluoromethyl-imidazo[1,2-a]pyridine-2-carboxylic acid 3-trifluoromethyl-benzylamide] | 20.4% |
| O=C(NCc1ccc(C(F)(F)F)cc1)c1nc2c(C(F)(F)F)cc(-c3ccco3)cn2c1Cl [Compound 181, 3-Chloro-6-furan-2-yl-8-trifluoromethyl-imidazo[1,2-a]pyridine-2-carboxylic acid 4-trifluoromethyl-benzylamide] | 48.2% |
| O=C(NCc1nccs1)c1nc2c(C(F)(F)F)cc(-c3ccco3)cn2c1Cl [Compound 182, 3-Chloro-6-furan-2-yl-8-trifluoromethyl-imidazo[1,2-a]pyridine-2-carboxylic acid (thiazol-2-ylmethyl)-amide] | 80.8% |
| O=C(NCC1CCCO1)c1nc2c(C(F)(F)F)cc(-c3ccco3)cn2c1Cl (centres unmarked) [Compound 184, 3-Chloro-6-furan-2-yl-8-trifluoromethyl-imidazo[1,2-a]pyridine-2-carboxylic acid (tetrahydro-furan-2-ylmethyl)-amide] | 84.4% |
| O=C(NCCc1cccs1)c1nc2c(C(F)(F)F)cc(-c3ccco3)cn2c1Cl [Compound 185, 3-Chloro-6-furan-2-yl-8-trifluoromethyl-imidazo[1,2-a]pyridine-2-carboxylic acid (2-thiophen-2-yl-ethyl)-amide] | 95.7% |
| O=C(c1nc2c(C(F)(F)F)cc(-c3ccco3)cn2c1Cl)N1CCC(c2ccccc2)C1 (centres unmarked) [Compound 186, (3-Chloro-6-furan-2-yl-8-trifluoromethyl-imidazo[1,2-a]pyridin-2-yl)-(3-phenyl-pyrrolidin-1-yl)-methanone] | 96% |
| O=C(NC1CCc2ccccc21)c1nc2c(C(F)(F)F)cc(-c3ccco3)cn2c1Cl (centres unmarked) [Compound 187, 3-Chloro-6-furan-2-yl-8-trifluoromethyl-imidazo[1,2-a]pyridine-2-carboxylic acid indan-1-ylamide] | 34.2% |
| O=C(c1nc2c(C(F)(F)F)cc(-c3ccco3)cn2c1Cl)N1CCCC1c1cccs1 (centres unmarked) [Compound 189, (3-Chloro-6-furan-2-yl-8-trifluoromethyl-imidazo[1,2-a]pyridin-2-yl)-(2-thiophen-2-yl-pyrrolidin-1-yl)-methanone] | 97.3% |
| COc1ccccc1CNC(=O)c1nc2c(C(F)(F)F)cc(-c3ccco3)cn2c1Cl [Compound 190, 3-Chloro-6-furan-2-yl-8-trifluoromethyl-imidazo[1,2-a]pyridine-2-carboxylic acid 2-methoxy-benzylamide] | 68.1% |
| COc1cccc(CNC(=O)c2nc3c(C(F)(F)F)cc(-c4ccco4)cn3c2Cl)c1 [Compound 191, 3-Chloro-6-furan-2-yl-8-trifluoromethyl-imidazo[1,2-a]pyridine-2-carboxylic acid 3-methoxy-benzylamide] | 2.3% |
| COc1ccc(CNC(=O)c2nc3c(C(F)(F)F)cc(-c4ccco4)cn3c2Cl)cc1 [Compound 192, 3-Chloro-6-furan-2-yl-8-trifluoromethyl-imidazo[1,2-a]pyridine-2-carboxylic acid 4-methoxy-benzylamide] | 73.9% |
| O=C(NCc1cccs1)c1nc2c(C(F)(F)F)cc(-c3ccccc3)cn2c1C(F)(F)F [Compound 193, 6-Phenyl-3,8-bis-trifluoromethyl-imidazo[1,2-a]pyridine-2-carboxylic acid (thiophen-2-ylmethyl)-amide] | 82.3% |
| CCc1c(C(=O)NCc2cccs2)nc2c(C(F)(F)F)cc(-c3ccco3)cn12 [Compound 194, 3-Ethyl-6-furan-2-yl-8-trifluoromethyl-imidazo[1,2-a]pyridine-2-carboxylic acid (thiophen-2-ylmethyl)-amide] | 89.5% |
| O=C(NCc1cccs1)c1nc2c(C(F)(F)F)cc(-c3cccc(F)c3)cn2c1Cl [Compound 196, 3-Chloro-6-(3-fluoro-phenyl)-8-trifluoromethyl-imidazo[1,2-a]pyridine-2-carboxylic acid (thiophen-2-ylmethyl)-amide] | 94% |
| O=C(NCc1cccs1)c1nc2c(C(F)(F)F)cc(-c3ccccc3F)cn2c1Cl [Compound 197, 3-Chloro-6-(2-fluoro-phenyl)-8-trifluoromethyl-imidazo[1,2-a]pyridine-2-carboxylic acid (thiophen-2-ylmethyl)-amide] | 90.6% |
| O=C(NCc1cccs1)c1nc2c(C(F)(F)F)cc(-c3ccc(F)c(F)c3)cn2c1Cl [Compound 198, 3-Chloro-6-(3,4-difluoro-phenyl)-8-trifluoromethyl-imidazo[1,2-a]pyridine-2-carboxylic acid (thiophen-2-ylmethyl)-amide] | 83.2% |
| O=C(NCc1cccs1)c1nc2c(C(F)(F)F)cc(-c3ccc(C(F)(F)F)cc3)cn2c1Cl [Compound 199, 3-Chloro-8-trifluoromethyl-6-(4-trifluoromethyl-phenyl)-imidazo[1,2-a]pyridine-2-carboxylic acid (thiophen-2-ylmethyl)-amide] | 41% |
| O=C(NCc1cccs1)c1nc2c(C(F)(F)F)cc(-c3ccsc3)cn2c1-c1ccsc1 [Compound 200, 3,6-Di-thiophen-3-yl-8-trifluoromethyl-imidazo[1,2-a]pyridine-2-carboxylic acid (thiophen-2-ylmethyl)-amide] | 91.6% |
| O=C(NCc1ccccc1F)c1nc2c(C(F)(F)F)cc(-c3ccco3)cn2c1Cl [Compound 201, 3-Chloro-6-furan-2-yl-8-trifluoromethyl-imidazo[1,2-a]pyridine-2-carboxylic acid 2-fluoro-benzylamide] | 72.4% |
| O=C(NCc1ccccc1OC(F)(F)F)c1nc2c(C(F)(F)F)cc(-c3ccco3)cn2c1Cl [Compound 202, 3-Chloro-6-furan-2-yl-8-trifluoromethyl-imidazo[1,2-a]pyridine-2-carboxylic acid 2-trifluoromethoxy-benzylamide] | 78.1% |
| O=C(NCc1cccc(OC(F)(F)F)c1)c1nc2c(C(F)(F)F)cc(-c3ccco3)cn2c1Cl [Compound 203, 3-Chloro-6-furan-2-yl-8-trifluoromethyl-imidazo[1,2-a]pyridine-2-carboxylic acid 3-trifluoromethoxy-benzylamide] | 47.5% |
| O=C(NCc1ccc(OC(F)(F)F)cc1)c1nc2c(C(F)(F)F)cc(-c3ccco3)cn2c1Cl [Compound 204, 3-Chloro-6-furan-2-yl-8-trifluoromethyl-imidazo[1,2-a]pyridine-2-carboxylic acid 4-trifluoromethoxy-benzylamide] | 31.7% |
| O=C(NCc1cccs1)c1nc2c(C(F)(F)F)cc(-c3ccncc3)cn2c1Cl [Compound 207, 3-Chloro-6-pyridin-4-yl-8-trifluoromethy-imidazo[1,2-a]pyridine-2-carboxylic acid (thiophen-2-ylmethyl)-amide] | 85.7% |
| O=C(NCc1cccs1)c1nc2c(C(F)(F)F)cc(-c3cccnc3)cn2c1Cl [Compound 208, 3-Chloro-6-pyridin-3-yl-8-trifluoromethyl-imidazo[1,2-a]pyridine-2-carboxylic acid (thiophen-2-ylmethyl)-amide] | 88.5% |
